Data reported in patent publication US10450316B2, “Certain protein kinase inhibitor” (Chongqing Fochon Pharmaceutical Co., Ltd., priority 2015, dated 2019).
pIC50: −log10 of the molar value.

Each compound was assayed on BE(2)-C cell (assay: Cell proliferation assay (MTS) in BE(2)-C cells). Conditions: Homo sapiens, inhibition of BE(2)-C cell proliferation, 48 h.
Type: cell-based
Summary of the method: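 Proliferation read-out was MTS absorbance at 490 nm, with 650 nm as reference, after a 2 h MTS incubation, giving IC50 values. Before reading, BE(2)-C cells plated at 3000 per well were exposed to nine compound concentrations from 10000 down to 1.5 nM for 48 h at 37 °C, 5% CO2.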

**Q.** With `CCN1CC2(CCN(Cc3ccc(Nc4ncc(F)c(-c5cc(F)c6nc7n(c6c5)C(C)(C)CC7)n4)nc3)CC2)C1` [Example 116, N-(5-((2-ethyl-2,7-diazaspiro[3.5]nonan-7-yl)methyl)pyridin-2-yl)-5-fluoro-4-(5-fluoro-1,1-dimethyl-2,3-dihydro-1H-benzo[d]pyrrolo[1,2-a]imidazol-7-yl)pyrimidin-2-amine] as the compound, how does the pIC50 read?
**A.** 7.00 to 8.00

**Q.** With `CC1(C)CCc2nc3c(F)cc(-c4nc(Nc5ccc(CN6CC7(CNC7)C6)cn5)ncc4F)cc3n21` [Example 117, N-(5-((2,6-diazaspiro[3.3]heptan-2-yl)methyl)pyridin-2-yl)-5-fluoro-4-(5-fluoro-1,1-dimethyl-2,3-dihydro-1H-benzo[d]pyrrolo[1,2-a]imidazol-7-yl)pyrimidin-2-amine] as the compound, how does the pIC50 read?
**A.** < 7.00

**Q.** With `CN1CC2(C1)CN(Cc1ccc(Nc3ncc(F)c(-c4cc(F)c5nc6n(c5c4)C(C)(C)CC6)n3)nc1)C2` [Example 118, 5-fluoro-4-(5-fluoro-1,1-dimethyl-2,3-dihydro-1H-benzo[d]pyrrolo[1,2-a]imidazol-7-yl)-N-(5-((6-methyl-2,6-diazaspiro[3.3]heptan-2-yl)methyl)pyridin-2-yl)pyrimidin-2-amine] as the compound, how does the pIC50 read?
**A.** 7.00 to 8.00

**Q.** How did the pIC50 turn out when `CCN1CC2(C1)CN(Cc1ccc(Nc3ncc(F)c(-c4cc(F)c5nc6n(c5c4)C(C)(C)CC6)n3)nc1)C2` [Example 119, N-(5-((6-ethyl-2,6-diazaspiro[3.3]heptan-2-yl)methyl)pyridin-2-yl)-5-fluoro-4-(5-fluoro-1,1-dimethyl-2,3-dihydro-1H-benzo[d]pyrrolo[1,2-a]imidazol-7-yl)pyrimidin-2-amine] was run?
**A.** 7.00 to 8.00

**Q.** How did the pIC50 turn out when `CC1(C)CCc2nc3c(F)cc(-c4nc(Nc5ccc(CN6CCC7(CCNCC7)CC6)cn5)ncc4F)cc3n21` [Example 120, N-(5-((3,9-diazaspiro[5.5]undecan-3-yl)methyl)pyridin-2-yl)-5-fluoro-4-(5-fluoro-1,1-dimethyl-2,3-dihydro-1H-benzo[d]pyrrolo[1,2-a]imidazol-7-yl)pyrimidin-2-amine] was run?
**A.** < 7.00

**Q.** How did the pIC50 turn out when `CN1CCC2(CC1)CCN(Cc1ccc(Nc3ncc(F)c(-c4cc(F)c5nc6n(c5c4)C(C)(C)CC6)n3)nc1)CC2` [Example 121, 5-fluoro-4-(5-fluoro-1,1-dimethyl-2,3-dihydro-1H-benzo[d]pyrrolo[1,2-a]imidazol-7-yl)-N-(5-((9-methyl-3,9-diazaspiro[5.5]undecan-3-yl)methyl)pyridin-2-yl)pyrimidin-2-amine] was run?
**A.** < 7.00

**Q.** How did the pIC50 turn out when `CCN1CCC2(CC1)CCN(Cc1ccc(Nc3ncc(F)c(-c4cc(F)c5nc6n(c5c4)C(C)(C)CC6)n3)nc1)CC2` [Example 122, N-(5-((9-ethyl-3,9-diazaspiro[5.5]undecan-3-yl)methyl)pyridin-2-yl)-5-fluoro-4-(5-fluoro-1,1-dimethyl-2,3-dihydro-1H-benzo[d]pyrrolo[1,2-a]imidazol-7-yl)pyrimidin-2-amine] was run?
**A.** 7.00 to 8.00

**Q.** `CC1(C)CCc2nc3c(F)cc(-c4nc(Nc5ccc(CN6CC7CNCC7C6)cn5)ncc4F)cc3n21` (stereo not drawn) [Example 123, 5-fluoro-4-(5-fluoro-1,1-dimethyl-2,3-dihydro-1H-benzo[d]pyrrolo[1,2-a]imidazol-7-yl)-N-(5-((hexahydropyrrolo[3,4-c]pyrrol-2(1H)-yl)methyl)pyridin-2-yl)pyrimidin-2-amine] was tested. Which pIC50 did it give?
**A.** < 7.00

**Q.** `CN1CC2CN(Cc3ccc(Nc4ncc(F)c(-c5cc(F)c6nc7n(c6c5)C(C)(C)CC7)n4)nc3)CC2C1` (stereo not drawn) [Example 124, 5-fluoro-4-(5-fluoro-1,1-dimethyl-2,3-dihydro-1H-benzo[d]pyrrolo[1,2-a]imidazol-7-yl)-N-(5-((5-methylhexahydropyrrolo[3,4-c]pyrrol-2(1H)-yl)methyl)pyridin-2-yl)pyrimidin-2-amine] was tested. Which pIC50 did it give?
**A.** 7.00 to 8.00

**Q.** How did the pIC50 turn out when `CCN1CC2CN(Cc3ccc(Nc4ncc(F)c(-c5cc(F)c6nc7n(c6c5)C(C)(C)CC7)n4)nc3)CC2C1` (stereo not drawn) [Example 125, N-(5-((5-ethylhexahydropyrrolo[3,4-c]pyrrol-2(1H)-yl)methyl)pyridin-2-yl)-5-fluoro-4-(5-fluoro-1,1-dimethyl-2,3-dihydro-1H-benzo[d]pyrrolo[1,2-a]imidazol-7-yl)pyrimidin-2-amine] was run?
**A.** 7.00 to 8.00

**Q.** With `CC1(C)CCc2nc3c(F)cc(-c4nc(Nc5ccc(CN6C7CCC6CNC7)cn5)ncc4F)cc3n21` [Example 126, N-(5-((3,8-diazabicyclo[3.2.1]octan-8-yl)methyl)pyridin-2-yl)-5-fluoro-4-(5-fluoro-1,1-dimethyl-2,3-dihydro-1H-benzo[d]pyrrolo[1,2-a]imidazol-7-yl)pyrimidin-2-amine] as the compound, how does the pIC50 read?
**A.** 7.00 to 8.00

**Q.** `CN1CC2CCC(C1)N2Cc1ccc(Nc2ncc(F)c(-c3cc(F)c4nc5n(c4c3)C(C)(C)CC5)n2)nc1` [Example 127, 5-fluoro-4-(5-fluoro-1,1-dimethyl-2,3-dihydro-1H-benzo[d]pyrrolo[1,2-a]imidazol-7-yl)-N-(5-((3-methyl-3,8-diazabicyclo[3.2.1]octan-8-yl)methyl)pyridin-2-yl)pyrimidin-2-amine] was tested. Which pIC50 did it give?
**A.** > 8.00

**Q.** How did the pIC50 turn out when `CCN1CC2CCC(C1)N2Cc1ccc(Nc2ncc(F)c(-c3cc(F)c4nc5n(c4c3)C(C)(C)CC5)n2)nc1` [Example 128, N-(5-((3-ethyl-3,8-diazabicyclo[3.2.1]octan-8-yl)methyl)pyridin-2-yl)-5-fluoro-4-(5-fluoro-1,1-dimethyl-2,3-dihydro-1H-benzo[d]pyrrolo[1,2-a]imidazol-7-yl)pyrimidin-2-amine] was run?
**A.** > 8.00

**Q.** `CC1(C)CCc2nc3c(F)cc(-c4nc(Nc5ccc(CN6CC7CCC(C6)N7)cn5)ncc4F)cc3n21` [Example 129, N-(5-((3,8-diazabicyclo[3.2.1]octan-3-yl)methyl)pyridin-2-yl)-5-fluoro-4-(5-fluoro-1,1-dimethyl-2,3-dihydro-1H-benzo[d]pyrrolo[1,2-a]imidazol-7-yl)pyrimidin-2-amine] was tested. Which pIC50 did it give?
**A.** 7.00 to 8.00

**Q.** With `CN1C2CCC1CN(Cc1ccc(Nc3ncc(F)c(-c4cc(F)c5nc6n(c5c4)C(C)(C)CC6)n3)nc1)C2` [Example 130, 5-fluoro-4-(5-fluoro-1,1-dimethyl-2,3-dihydro-1H-benzo[d]pyrrolo[1,2-a]imidazol-7-yl)-N-(5-((8-methyl-3,8-diazabicyclo[3.2.1]octan-3-yl)methyl)pyridin-2-yl)pyrimidin-2-amine] as the compound, how does the pIC50 read?
**A.** 7.00 to 8.00

**Q.** With `CCN1C2CCC1CN(Cc1ccc(Nc3ncc(F)c(-c4cc(F)c5nc6n(c5c4)C(C)(C)CC6)n3)nc1)C2` [Example 131, N-(5-((8-ethyl-3,8-diazabicyclo[3.2.1]octan-3-yl)methyl)pyridin-2-yl)-5-fluoro-4-(5-fluoro-1,1-dimethyl-2,3-dihydro-1H-benzo[d]pyrrolo[1,2-a]imidazol-7-yl)pyrimidin-2-amine] as the compound, how does the pIC50 read?
**A.** 7.00 to 8.00

**Q.** How did the pIC50 turn out when `Fc1cnc(Nc2ccc(CN3CC4CC(C3)N4)cn2)nc1-c1cc(F)c2nc3n(c2c1)C1(CC3)CC1` [Example 132, N-(5-((3,6-diazabicyclo[3.1.1]heptan-3-yl)methyl)pyridin-2-yl)-5-fluoro-4-(5-fluoro-2,3-dihydrospiro[benzo[d]pyrrolo[1,2-a]imidazole-1,1′-cyclopropan]-7-yl)pyrimidin-2-amine] was run?
**A.** < 7.00

**Q.** How did the pIC50 turn out when `CN1C2CC1CN(Cc1ccc(Nc3ncc(F)c(-c4cc(F)c5nc6n(c5c4)C4(CC6)CC4)n3)nc1)C2` [Example 133, 5-fluoro-4-(5-fluoro-2,3-dihydrospiro[benzo[d]pyrrolo[1,2-a]imidazole-1,1′-cyclopropan]-7-yl)-N-(5-((6-methyl-3,6-diazabicyclo[3.1.1]heptan-3-yl)methyl)pyridin-2-yl)pyrimidin-2-amine] was run?
**A.** 7.00 to 8.00

**Q.** With `CCN1C2CC1CN(Cc1ccc(Nc3ncc(F)c(-c4cc(F)c5nc6n(c5c4)C4(CC6)CC4)n3)nc1)C2` [Example 134, N-(5-((6-ethyl-3,6-diazabicyclo[3.1.1]heptan-3-yl)methyl)pyridin-2-yl)-5-fluoro-4-(5-fluoro-2,3-dihydrospiro[benzo[d]pyrrolo[1,2-a]imidazole-1,1′-cyclopropan]-7-yl)pyrimidin-2-amine] as the compound, how does the pIC50 read?
**A.** < 7.00

**Q.** With `Fc1cnc(Nc2ccc(CN3C[C@@H]4C[C@H]3CN4)cn2)nc1-c1cc(F)c2nc3n(c2c1)C1(CC3)CC1` [Example 135, N-(5-(((1S,4S)-2,5-diazabicyclo[2.2.1]heptan-2-yl)methyl)pyridin-2-yl)-5-fluoro-4-(5-fluoro-2,3-dihydrospiro[benzo[d]pyrrolo[1,2-a]imidazole-1,1′-cyclopropan]-7-yl)pyrimidin-2-amine] as the compound, how does the pIC50 read?
**A.** < 6.00

**Q.** `CN1C[C@@H]2C[C@H]1CN2Cc1ccc(Nc2ncc(F)c(-c3cc(F)c4nc5n(c4c3)C3(CC5)CC3)n2)nc1` [Example 136, 5-fluoro-4-(5-fluoro-2,3-dihydrospiro[benzo[d]pyrrolo[1,2-a]imidazole-1,1′-cyclopropan]-7-yl)-N-(5-(((1S,4S)-5-methyl-2,5-diazabicyclo[2.2.1]heptan-2-yl)methyl)pyridin-2-yl)pyrimidin-2-amine] was tested. Which pIC50 did it give?
**A.** < 7.00

**Q.** With `CCN1C[C@@H]2C[C@H]1CN2Cc1ccc(Nc2ncc(F)c(-c3cc(F)c4nc5n(c4c3)C3(CC5)CC3)n2)nc1` [Example 137, N-(5-(((1S,4S)-5-ethyl-2,5-diazabicyclo[2.2.1]heptan-2-yl)methyl)pyridin-2-yl)-5-fluoro-4-(5-fluoro-2,3-dihydrospiro[benzo[d]pyrrolo[1,2-a]imidazole-1,1′-cyclopropan]-7-yl)pyrimidin-2-amine] as the compound, how does the pIC50 read?
**A.** 7.00 to 8.00

**Q.** `C[C@@]12CNC[C@]1(C)CN(Cc1ccc(Nc3ncc(F)c(-c4cc(F)c5nc6n(c5c4)C4(CC6)CC4)n3)nc1)C2` [Example 138, N-(5-(((3aR,6aS)-3a,6a-dimethylhexahydro-pyrrolo[3,4-c]pyrrol-2(1H)-yl)methyl)pyridin-2-yl)-5-fluoro-4-(5-fluoro-2,3-dihydro-spiro[benzo[d]pyrrolo[1,2-a]imidazole-1,1′-cyclopropan]-7-yl)pyrimidin-2-amine] was tested. Which pIC50 did it give?
**A.** < 6.00

**Q.** With `CN1C[C@@]2(C)CN(Cc3ccc(Nc4ncc(F)c(-c5cc(F)c6nc7n(c6c5)C5(CC7)CC5)n4)nc3)C[C@@]2(C)C1` [Example 139, 5-fluoro-4-(5-fluoro-2,3-dihydrospiro[benzo[d]pyrrolo[1,2-a]imidazole-1,1′-cyclopropan]-7-yl)-N-(5-(((3aR,6aS)-3a,5,6a-trimethylhexahydro-pyrrolo[3,4-c]pyrrol-2(1H)-yl)methyl)pyridin-2-yl)pyrimidin-2-amine] as the compound, how does the pIC50 read?
**A.** < 6.00
